# Reference: ChEMBL document CHEMBL1137765, “Design and synthesis of novel chloramphenicol amine derivatives as potent aminopeptidase N (APN/CD13) inhibitors” (Bioorg Med Chem, 2009)
# Molecular target: T1, Aminopeptidase N (Sus scrofa, UniProt P15145)
# T1 sequence (P15145 whole entry): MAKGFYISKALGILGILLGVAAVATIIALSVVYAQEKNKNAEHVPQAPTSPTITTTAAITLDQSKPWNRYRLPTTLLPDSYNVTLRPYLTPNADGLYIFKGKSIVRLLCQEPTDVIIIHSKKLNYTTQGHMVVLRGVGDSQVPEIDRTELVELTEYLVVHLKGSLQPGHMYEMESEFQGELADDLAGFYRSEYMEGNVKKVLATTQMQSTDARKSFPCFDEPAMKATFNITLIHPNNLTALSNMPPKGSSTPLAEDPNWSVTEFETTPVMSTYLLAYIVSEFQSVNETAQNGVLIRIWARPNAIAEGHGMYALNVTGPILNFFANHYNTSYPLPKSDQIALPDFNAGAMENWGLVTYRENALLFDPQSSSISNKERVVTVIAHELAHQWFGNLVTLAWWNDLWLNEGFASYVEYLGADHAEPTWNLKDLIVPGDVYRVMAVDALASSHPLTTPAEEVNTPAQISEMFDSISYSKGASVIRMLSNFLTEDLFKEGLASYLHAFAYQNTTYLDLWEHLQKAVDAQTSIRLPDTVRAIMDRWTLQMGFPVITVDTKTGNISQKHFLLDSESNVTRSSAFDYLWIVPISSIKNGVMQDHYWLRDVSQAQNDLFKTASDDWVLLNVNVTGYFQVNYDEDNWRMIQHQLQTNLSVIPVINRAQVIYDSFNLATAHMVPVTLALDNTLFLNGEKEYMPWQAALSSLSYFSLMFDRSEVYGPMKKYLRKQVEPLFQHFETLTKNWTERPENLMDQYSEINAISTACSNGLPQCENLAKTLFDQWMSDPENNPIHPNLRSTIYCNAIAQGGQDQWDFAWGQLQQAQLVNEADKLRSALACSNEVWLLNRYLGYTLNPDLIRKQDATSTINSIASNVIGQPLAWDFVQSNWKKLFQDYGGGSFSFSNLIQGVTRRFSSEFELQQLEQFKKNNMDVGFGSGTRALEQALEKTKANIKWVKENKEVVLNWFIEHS
# Assay: Inhibition of pig kidney microsomal Aminopeptidase N
# Details: not given
row,SMILES,IC50 [µM]
1,N[C@@H](C(=O)NCCc1ccccc1)[C@@H](O)c1ccc([N+](=O)[O-])cc1,106
2,N[C@@H](C(=O)NCCc1ccccc1Cl)[C@@H](O)c1ccc([N+](=O)[O-])cc1,137
3,N[C@@H](C(=O)NCc1ccccc1)[C@@H](O)c1ccc([N+](=O)[O-])cc1,170
4,N[C@@H](C(=O)NCCc1ccc2c(c1)OCO2)[C@@H](O)c1ccc([N+](=O)[O-])cc1,90.3
5,N[C@@H](C(=O)NCc1ccc(F)cc1)[C@@H](O)c1ccc([N+](=O)[O-])cc1,302
6,N[C@@H](C(=O)NC1CCCCC1)[C@@H](O)c1ccc([N+](=O)[O-])cc1,251
7,N[C@@H](C(=O)N[C@@H](Cc1ccccc1)C(=O)N[C@@H](Cc1ccccc1)C(=O)O)[C@@H](O)c1ccc([N+](=O)[O-])cc1,7.1
8,N[C@@H](C(=O)NCCc1ccc(O)cc1)[C@@H](O)c1ccc([N+](=O)[O-])cc1,51.4
9,COc1ccc(CNC(=O)[C@H](N)[C@@H](O)c2ccc([N+](=O)[O-])cc2)cc1,145
10,N[C@@H](C(=O)N[C@H](CO)Cc1ccccc1)[C@@H](O)c1ccc([N+](=O)[O-])cc1,116

# Second part, the molecule after the results:
row,IC50 [µM],SMILES
1,251,CC(C)NC(=O)[C@H](N)[C@@H](O)c1ccc([N+](=O)[O-])cc1
2,34.6,CC(C)C[C@H](NC(=O)[C@H](N)[C@@H](O)c1ccc([N+](=O)[O-])cc1)C(=O)N[C@@H](Cc1ccccc1)C(=O)O
3,85.6,CC(C)C[C@H](NC(=O)[C@H](N)[C@@H](O)c1ccc([N+](=O)[O-])cc1)C(=O)O
4,54,CC(C)C[C@H](NC(=O)[C@H](N)[C@@H](O)c1ccc([N+](=O)[O-])cc1)C(=O)NO
5,1390,N[C@@H](C(=O)NCCCCCC(=O)O)[C@@H](O)c1ccc([N+](=O)[O-])cc1
6,183,CCCNC(=O)[C@H](N)[C@@H](O)c1ccc([N+](=O)[O-])cc1
7,522,CCCCCNC(=O)[C@H](N)[C@@H](O)c1ccc([N+](=O)[O-])cc1
8,162,N[C@@H](C(=O)N[C@@H](Cc1cc2ccccc2[nH]1)C(=O)O)[C@@H](O)c1ccc([N+](=O)[O-])cc1
9,140,N[C@@H](C(=O)O)[C@@H](O)c1ccc([N+](=O)[O-])cc1
10,160,CC(C)[C@H](NC(=O)[C@H](N)[C@@H](O)c1ccc([N+](=O)[O-])cc1)C(=O)O
11,31.3,N[C@@H](C(=O)N[C@@H](Cc1ccccc1)C(=O)NO)[C@@H](O)c1ccc([N+](=O)[O-])cc1
12,60.4,N[C@@H](C(=O)N[C@@H](Cc1ccccc1)C(=O)O)[C@@H](O)c1ccc([N+](=O)[O-])cc1
13,233,CCCCNC(=O)[C@H](N)[C@@H](O)c1ccc([N+](=O)[O-])cc1
14,2890,N[C@@H](C(=O)NCCCC(=O)O)[C@@H](O)c1ccc([N+](=O)[O-])cc1

# Tested on: HL-60
# Assay: cells
# Details: Homo sapiens, HL-60, 48 h
# Description: Antiproliferative activity against human HL60 cells after 48 hrs by MTT assay
row,IC50 [µM],SMILES
1,2020,CC(C)C[C@H](NC(=O)[C@H](N)[C@@H](O)c1ccc([N+](=O)[O-])cc1)C(=O)N[C@@H](Cc1ccccc1)C(=O)O
2,1650,CC(C)C[C@H](NC(=O)[C@@H](O)[C@H](N)Cc1ccccc1)C(=O)O [UBENIMEX]
3,2210,N[C@@H](C(=O)N[C@@H](Cc1ccccc1)C(=O)N[C@@H](Cc1ccccc1)C(=O)O)[C@@H](O)c1ccc([N+](=O)[O-])cc1
